Reference: patent US4180587A, “Ureylene phenylene anionic naphthalenesulfonic acids as complement inhibitors” (American Cyanamid Company, priority 1978, dated 1979)
Where two headings read alike, the source gives them in different places.

Assays:
[1] = test system: human C1; assay: Test Code 026 (C1 inhibitor): ability of activated human C1 to destroy fluid phase human C2 in the presence of C4; assay type: biochemical; conditions: activity in wells, twofold serial dilution; higher well number indicates higher activity
Excerpt: (§1) An active inhibitor protects C2 from C1 and C4; (ii) Test Code 035 (C3-C9 inhibitor)--This test determines the ability of the late components of human complement (C3-C9) to lyse EAC 142 in the presence of appropriate dilutions of the test compound. An active inhibitor protects EAC 142 from lysis by human C3-C9; (iii) Test Code 036 (C-Shunt inhibitor)--In this test human erythrocytes rendered fragile are lysed in autologous serum via the shunt pathway activated by cobra venom factor in the presence of appropriate dilutions of the test compound. Inhibition of the shunt pathway results in failure of lysis; (iv) Forssman Vasculitis Test--Here, the well known complement dependent lesion, Forssman vasculitis, is produced in guinea pigs by intradermal injection of rabbit anti-Forssman antiserum. […]

[2] = test system: late components of human complement (C3-C9); assay: Test Code 035 (C3-C9 inhibitor): lysis of EAC 142 by late components of human complement; assay type: cell-based; conditions: activity in wells, twofold serial dilution; higher well number indicates higher activity
Excerpt: as §1

[3] = test system: shunt pathway; assay: Test Code 036 (C-Shunt inhibitor): lysis of fragile human erythrocytes in autologous serum via shunt pathway activated by cobra venom factor; assay type: cell-based; conditions: activity in wells, twofold serial dilution
Excerpt: as §1

[4] = test system: whole complement; assay: Complement Level Reduction Test: serum of dosed guinea pigs tested for whole complement by capillary tube assay; assay type: in vivo, guinea pig; conditions: intraperitoneal, 200 mg/kg
Excerpt: An active inhibitor protects C2 from C1 and C4; (ii) Test Code 035 (C3-C9 inhibitor)--This test determines the ability of the late components of human complement (C3-C9) to lyse EAC 142 in the presence of appropriate dilutions of the test compound. An active inhibitor protects EAC 142 from lysis by human C3-C9; (iii) Test Code 036 (C-Shunt inhibitor)--In this test human erythrocytes rendered fragile are lysed in autologous serum via the shunt pathway activated by cobra venom factor in the presence of appropriate dilutions of the test compound. Inhibition of the shunt pathway results in failure of lysis; (iv) Forssman Vasculitis Test--Here, the well known complement dependent lesion, Forssman vasculitis, is produced in guinea pigs by intradermal injection of rabbit anti-Forssman antiserum. The lesion is measured in terms of diameter, edema and hemorrhage and the extent to which a combined index of these is inhibited by prior intraperitoneal injection of the test compound at 200 mg/kg is then reported, unless otherwise stated; (v) Forssman Shock Test--Lethal shock is produced in guinea pigs by an i.v. injection of anti-Forssman antiserum and the harmonic mean death time of treated guinea pigs is compared with that of simultaneous controls; (vi) Complement Level Reduction Test--In this test, the above dosed guinea pigs, or others, are bled for serum and the complement level is determined in undiluted serum by the capillary tube method of U.S. Pat. No. 3,876,376 and compared to undosed control guinea pigs; and (vii) Cap 50 Test--Here, appropriate amounts of the test compound are added to a pool of guinea pig serum in vitro, after which the undiluted serum capillary tube assay referred to above is run. The concentration of compound inhibiting 50% is reported.
With reference to Table I, guinea pigs weighing about 300 g were dosed intravenously (i.v.) or intraperitoneally (i.p.) with 200 mg/kg of the test compound dissolved in saline and adjusted to pH 7-8. […] The serum was tested for whole complement using the capillary tube assay. Percent inhibition was calculated by comparison with simultaneous controls. The results appear in Table I together with results of tests code 026, 035, 036, Cap 50, % inhibition and Forssman shock.

[5] = test system: complement system; conditions: reported in literature; cited from earlier work
[6] = reported in literature; cited from earlier work
[7] = test system: total hemolytic complement activity; conditions: in vitro; judged by reduction in total hemolytic complement activity; cited from earlier work
[8] = test system: total hemolytic complement activity; conditions: in vivo; judged by reduction in total hemolytic complement activity; cited from earlier work

Question: With `Cc1ccc(C(=O)Nc2cc(C(=O)Nc3ccc(S(=O)(=O)[O-])c4cc(S(=O)(=O)[O-])cc(S(=O)(=O)[O-])c34)ccc2C)cc1NC(=O)Nc1cc(C(=O)Nc2cc(C(=O)Nc3ccc(S(=O)(=O)[O-])c4cc(S(=O)(=O)[O-])cc(S(=O)(=O)[O-])c34)ccc2C)ccc1C.[Na+].[Na+].[Na+].[Na+].[Na+].[Na+]` [Example 3, 8,8'-[Ureylenebis[(4-methyl-3,1-phenylenecarbonyl)imino(4-methyl-3,1-phenylenecarbonyl)imino]]di-1,3,5-naphthalenetrisulfonic acid, hexasodium salt] as the compound, how does the “C1 026 Wells” value [1] read?
Answer: +3 Wells

Question: What about the “C-Late 035 Wells” value [2] of the same compound?
Answer: +3 Wells

Question: What about the “Shunt Inhibition 036 Wells” value [3] of the same compound?
Answer: N

Question: What about the “In Vivo Activity (Guinea Pig) % Inhibition” value ([4]; 30 minutes) of the same compound?
Answer: -58%

Question: And the “In Vivo Activity (Guinea Pig) % Inhibition” value ([4]; 60 minutes)?
Answer: -65%

Question: And the “In Vivo Activity (Guinea Pig) % Inhibition” value ([4]; 120 minutes)?
Answer: -77%

Question: Which results are given for `Cc1ccc(C(=O)Nc2ccc(S(=O)(=O)O)c3cc(S(=O)(=O)O)cc(S(=O)(=O)O)c23)cc1NC(=O)c1cccc(NC(=O)Nc2cccc(C(=O)Nc3cc(C(=O)Nc4ccc(S(=O)(=O)O)c5cc(S(=O)(=O)O)cc(S(=O)(=O)O)c45)ccc3C)c2)c1` [Suramin]?
Answer: C1 026 Wells [1]: +4 Wells; C-Late 035 Wells [2]: +2 Wells; In Vivo Activity (Guinea Pig) % Inhibition ([4]; 30 minutes): -9%; In Vivo Activity (Guinea Pig) % Inhibition ([4]; 60 minutes): -17%; In Vivo Activity (Guinea Pig) % Inhibition ([4]; 120 minutes): -44%; anticomplementary effect / activity as complement inhibitor [5]: moderately active as a complement inhibitor

Question: Which “anticomplementary effect / activity as complement inhibitor” value [5] does the source give for `Nc1ccc2cc(S(=O)(=O)[O-])cc(O)c2c1N=Nc1ccc(NC(=O)Nc2ccc(N=Nc3c(N)ccc4cc(S(=O)(=O)[O-])cc(O)c34)c(S(=O)(=O)[O-])c2)cc1S(=O)(=O)[O-].[Na+].[Na+].[Na+].[Na+]` [chlorazol fast pink, 3,3'-ureylenebis[6-(2-amino-8-hydroxy-6-sulfo-1-naphthylazo)benzenesulfonic acid], tetrasodium salt] here?
Answer: anticomplementary effect

Question: With `NCCCCCC(=O)O` [epsilon-aminocaproic acid] as the compound, how does the “treatment of hereditary angioneurotic edema” value [6] read?
Answer: used with success

Question: With `NC[C@H]1CC[C@H](C(=O)O)CC1` [tranexamic acid] as the compound, how does the “treatment of hereditary angioneurotic edema” value [6] read?
Answer: used with success

Question: Which “anticomplementary effect / activity as complement inhibitor” value [5] does the source give for heparin here?
Answer: anticomplementary effect

Question: For pentosan-polysulfoester, which “anticomplementary activity on human serum” value [7] is on record?
Answer: anticomplementary activity

Question: And the “anticomplementary activity on human serum” value [8]?
Answer: anticomplementary activity
